The structures appear in SMILES notation. Calls of active or inactive are those of the source.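 Rule for the calls: active = compounds giving half or more protection of infected cells from virus-caused growth loss, again on retest; inactive = the rest.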

This experiment has as its system CEM cells HIV-1 protection, formazan growth assay. Nature of the experiment: NCI AIDS Antiviral Assay. As to conditions: for IC50: measured here: growth of uninfected CEM cells. In outline: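 Human CEM cells, uninfected and HIV-1-infected, exposed to five drug concentrations; growth measured by soluble formazan assay and scored as percent protection from infection, with protecting compounds retested.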

By EC50 is commonly meant the concentration at which the effect is half-maximal. The term IC50 denotes the concentration needed to halve the response being measured. A high value points to a need for much substance. As for `O=C1CCCC(C(Sc2ccccc2)(Sc2ccccc2)Sc2ccccc2)C1` (centres undefined), the EC50 was greater than 200 µM and the half-maximal inhibitory concentration (IC50) worked out at 12 µM.
Take `Cc1ccc(S(=O)(=O)NC(=O)Nc2nc(Cl)cc(Cl)n2)cc1`: the EC50 was greater than 100 µM and the IC50 stood at 87.1 µM.
`Nc1nc(OCc2ccccc2)c2[nH]cnc2n1`: the EC50 is greater than 200 µM and the IC50 worked out at 32.4 µM.
With `CCCCCCCCCCCC1CN=C(CCCCC2=NCC(CCCCCCCCCCC)N2)N1` (centres undefined), the EC50 is greater than 7.08 µM and the 50% inhibitory concentration (IC50) is greater than 7.08 µM.
With `CN(CC1NCCCC1O)C12CC3CC(CC(C3)C1)C2` (centres undefined), the EC50 was greater than 891 µM and the IC50 is greater than 891 µM.
Consider `Cn1c2ccccc2c2oc(CO)cc(=O)c21`, for which the EC50 is greater than 200 µM and the IC50 is 126 µM.
Regarding `COC1(OC)CCCCCCCCC(OC)(OC)CCCCCCCC1`, the EC50 was greater than 200 µM and the IC50 was greater than 200 µM.
With `CCOC(=O)/C=C(/C)Nc1nc2c(c(C(=O)OC)c1C#N)CCCC2`, the EC50 was greater than 200 µM and the IC50 is greater than 200 µM.
For `N#Cc1cc2c(cc1C#N)/C(=N\c1cccc(N)n1)N=C2Nc1cccc(N)n1`, the EC50 is greater than 200 µM and the IC50 was 4.07 µM.
Regarding `CCO/C=C1\N=C(c2ccccc2Br)OC1=O`, the EC50 was greater than 316 µM and the IC50 was greater than 316 µM.
As for `CO/C=C/CCCNCc1ccccc1`, the EC50 is greater than 457 µM and the IC50 is greater than 457 µM.
In the case of `CC(=O)N(O)c1ccccc1-c1ccccc1`, the EC50 was greater than 200 µM and the half-inhibitory concentration (IC50) was determined as 102 µM.
For `O=C(O)c1cc(Br)cc(SSc2cc(Br)cc(C(=O)O)c2O)c1O` the same measures were 102 µM and 107 µM.
For `COc1cc(C2c3c(oc4ccccc4c3=O)Oc3oc4ccccc4c(=O)c32)cc(OC)c1O` the same measures were greater than 5.75 µM and greater than 5.75 µM.
Regarding `COc1ccc2[nH]cc(CN3CCC(CO)(c4ccccc4)CC3)c2c1`, the EC50 is greater than 200 µM and the IC50 turned out to be 91.2 µM.
Take `COC(=O)c1cc(C(=CC(=O)O)c2cc(Cl)c(OC)c(C(=O)OC)c2)cc(Cl)c1OC`: the EC50 is greater than 200 µM and the half-inhibitory concentration (IC50) is 95.5 µM.
For `CCOC(=O)C(=CNc1ccc(F)c(F)c1)C(=O)OCC` the same measures were greater than 200 µM and 79.4 µM.
`O=C(O)c1[nH]c(C(=O)O)c(CC(F)(F)C(F)(F)C(F)(F)F)c1CC(F)(F)C(F)(F)C(F)(F)F`: the outcome was inactive.
`O=c1[nH]nc(Nc2ccccc2)c2nnn(C3CCCCC3)c12`: the EC50 was greater than 174 µM and the 50% inhibitory concentration (IC50) is greater than 174 µM.
For the compound `CC(C)CCC[C@@H](C)[C@H]1CC[C@H]2[C@@H]3CC[C@H]4C[C@@H](CCC=C(c5cc(Cl)c(O)c(C(=O)O)c5)c5cc(Cl)c(O)c(C(=O)O)c5)CC[C@]4(C)[C@H]3CC[C@]12C`, the EC50 was 37.2 µM and the IC50 stood at 295 µM.
On to `OC[C@H]1C[C@@H]2Cc3ccccc3N2N1`, for which the EC50 was greater than 200 µM and the IC50 was greater than 200 µM.
Regarding `COc1ccc(NC(=O)COC(=O)c2cccc3c(=O)c4ccccc4[nH]c23)cc1`, the outcome was inactive.
As to `C/C(Cc1[nH]nc2c1c(=O)oc1ccc3ccccc3c12)=N\N`, the EC50 was greater than 200 µM and the IC50 stood at 12.6 µM.
Consider `CCn1cc(C(=O)O)c(=O)c2ccc(-c3ccncc3)cc21`, for which the result was inactive.
Turning to `CC(C)(C)C#COC(=O)c1ccccc1`, the EC50 is greater than 251 µM and the half-inhibitory concentration (IC50) was greater than 251 µM.
Turning to `COc1ccc2c(ccc3nc(CCC(=O)O)n(C)c(=O)c32)c1`, the EC50 is greater than 794 µM and the IC50 was found to be 229 µM.
As for `CC(=O)NC1C(OCc2ccccc2)OC(CO)C(O)C1OC(C)C(=O)NC(C(=O)NC(CCC(=O)NCCCCNc1c2ccccc2nc2cccc([N+](=O)[O-])c12)C(N)=O)C(C)C` (centres undefined), the EC50 was greater than 100 µM and the IC50 was found to be 1.12 µM.
For `COc1ccc(/C=C2\N=C3Sc4c(nc[nH]c4=O)N3C2=O)cc1` the same measures were greater than 200 µM and greater than 200 µM.
Regarding `COc1cc(OC)c(SSCCCCS(=O)O)c(OC)c1`, the result was inactive.
In the case of `O=P1(c2ccccc2)C(c2ccccc2)=CC=C1c1ccccc1`, the EC50 is greater than 200 µM and the IC50 was determined as 7.41 µM.
For the compound `CC(=O)c1ccc(Cc2ccc(C(C)=O)s2)s1`, the EC50 is greater than 200 µM and the half-maximal inhibitory concentration (IC50) is greater than 200 µM.
Consider `CCCCCCCCCCCCCCC[C@@H](O)C[N+](C)(C)CCO`, for which the EC50 is greater than 200 µM and the IC50 was 2.82 µM.
In the case of `COc1cc(\C=N/N=C/C=C/c2ccccc2)cc(OC)c1OC`, the result was inactive.
Regarding `O=c1ccn(Cc2ccccc2)c(=S)[nH]1`, the EC50 is greater than 200 µM and the 50% inhibitory concentration (IC50) is greater than 200 µM.
With `CC(=O)NS(=O)(=O)c1ccc(NC(=O)c2ccccc2SC(=O)CCCCBr)cc1`, the 50% effective concentration (EC50) is 12.3 µM and the IC50 is 148 µM.
As to `Fc1nc(Sc2ncnc3nc[nH]c23)nc(-c2c3ccccc3c3sc4ccccc4n23)n1`, the EC50 is greater than 200 µM and the half-inhibitory concentration (IC50) worked out at 97.7 µM.
In the case of `COC(=O)c1cc(C(=CCCO)c2cc(Br)c(OC)c(C(=O)OC)c2)cc(Br)c1OC`, the EC50 was greater than 200 µM and the IC50 was found to be 12.6 µM.
For `COC[C@@H](N=CN1CCc2cc(OC)ccc2C1)C(C)C` the same measures were greater than 871 µM and greater than 871 µM.
`Cc1ccc(S(=O)(=O)N(CCNC(=O)c2cccc(O)c2O)c2cc3c4c(c2)Oc2cccc5c2C4(C)c2c(cccc2O3)O5)cc1`: the EC50 was greater than 200 µM and the half-inhibitory concentration (IC50) is 10.7 µM.
For `CC1(Br)CC2OC3(Br)C=CC(C)(O)C2(CC1=O)C3(C)C` (centres undefined), the outcome was inactive.
Turning to `COC(=O)C1CC23C=CCN4CC(C2C)C2(c5ccccc5NC12)C43` (centres undefined), the EC50 was greater than 200 µM and the IC50 was determined as 112 µM.
With `COP(=O)(OC)OC=C(Cl)Cl`, the EC50 is greater than 200 µM and the 50% inhibitory concentration (IC50) was greater than 200 µM.
Take `Cc1ccc(C2=C(c3ccccc3)C(Br)(c3ccccc3)C(c3ccccc3)=C2c2ccc(C)cc2)cc1`: the EC50 was greater than 26.9 µM and the IC50 was greater than 26.9 µM.
`COC(=O)c1ccccc1N(C(=O)c1ccccc1)c1ccccc1C`: the result was inactive.
`CN(C)C=Nc1nncc2n[nH]nc12`: the EC50 was greater than 200 µM and the IC50 is greater than 200 µM.
Consider `COc1ccc(Cl)cc1C(=O)c1cc(Cl)cc(S(=O)(=O)O)c1OC`, for which the EC50 is greater than 617 µM and the half-inhibitory concentration (IC50) came out at 427 µM.
In the case of `O=C1OC2C=CC1C1C(=O)OC(=O)C21` (centres undefined), the EC50 was greater than 200 µM and the IC50 is greater than 200 µM.
In the case of `OCC1CC(F)C(n2cnc3c(NO)ncnc32)O1` (centres undefined), the EC50 was greater than 151 µM and the IC50 is greater than 151 µM.
Regarding `O=C1/C(=C/c2ccc(Br)cc2)CCC/C1=C\c1ccc(Br)cc1`, the EC50 is greater than 6.31 µM and the IC50 is greater than 6.31 µM.
On to `O=C(CC1C(=O)Nc2ccccc2S1=O)Nc1cccc(Cl)c1` (centres undefined), for which the EC50 was greater than 20.9 µM and the IC50 is greater than 20.9 µM.
For `O=C1CCC[C@H]2O[C@@H](COCc3ccccc3)C[C@@H]12`, the EC50 is greater than 200 µM and the 50% inhibitory concentration (IC50) amounted to 151 µM.
Consider `C[S+](C)c1ccccc1NC(C)(C)C`, for which the EC50 was greater than 776 µM and the IC50 was found to be 490 µM.
For `CC(CCC[C@H](C)CO)[C@H]1[C@@H](O)C(O)C2[C@@H]3C[C@@H](O)C4(O)C[C@@H](O)CC[C@]4(C)C3CC[C@@]21C` (some centres undefined), in that order: greater than 200 µM and 107 µM.

These data come from PubChem BioAssay AID179 (DTP/NCI, 2004).
